Experiments:
adult H. irritans exigua = experiment: Adult H. irritans exigua feeding assay (blood meal assay); format: in vivo
Procedure: Adult H. irritans exigua Feeding Assay
A blood meal assay was used to determine the LC50 for test compound (3-bromo-1-(3-chloro-2-pyridinyl)-N-[4-cyano-2-methyl-6-[(methylamino)carbonyl]phenyl]-1H-pyrazole-5-carboxamide) on adult H.irritans exigua. Six (6) serial dilutions of the test compound were prepared in decoagulated bovine blood that was stored refrigerated. Ivermectin was included as a positive control compound and a negative control was included in each assay. Flies were collected with a net immediately before each assay from yarded commercial cattle. About 100 adults were introduced into a mesh cage (30×30×30 cm) containing one cotton gauze (4×4×1 cm) soaked in one blood/insecticide concentration. There were 3 replicate cages of each blood/insecticide concentration. Blood gauzes were replaced every 12 hours. The untreated control cages received untreated decoagulated blood. All cages were labelled and stored for 72 hours at 25-27° C. in the dark at ambient relative humidity (70-85%). […] Data was subjected to log-probit analysis to determine the LC50 if there is a dose response in the assay.

Cat Fleas (C. felis) = experiment: In vivo evaluation against artificial infestations with cat fleas on dogs; conditions: for Flea efficacy compared to the untreated control: topical line-on (test compound 60 mg/kg in NMP); for Flea efficacy (%) compared to the untreated control: topical line-on, test compound 60 mg/kg in NMP
Text: (§1) In vivo evaluation Against Artificial Infestations With Cat Fleas (C. felis) and Brown Dog Ticks (R. sanguineus) on Dogs
(§2) Twenty five dogs were used in this study that investigated the efficacy of test compound (3-bromo-1-(3-chloro-2-pyridinyl)-N-[4-cyano-2-methyl-6-[(methylamino)carbonyl]phenyl]-1H-pyrazole-5-carboxamide) against fleas and ticks. Two groups (one treated and one untreated) of five dogs were used to evaluate the flea efficacy whilst two groups of five dogs (one treated and one untreated) were used to investigate the tick efficacy. The dogs in the respective groups were infested weekly with 40 unfed adult ticks and 100 cat fleas. One group was treated with ADVANTIX and served as a positive control. The dogs in this group were infested simultaneously with fleas and ticks. Test compound was formulated in NMP. The treatment was applied topically via syringe on the dorsal line of the animals as a line-on at 60 mg/kg dose rate. The efficacy of the compound was assessed by weekly tick and flea counts. The weekly counts generated in the treated groups were compared to the positive and negative untreated control (UTC) group counts to evaluate efficacy of Test compound.

[1] = tested on: Brown Dog Ticks (R. sanguineus); experiment: In vivo evaluation against artificial infestations with brown dog ticks on dogs; conditions: for Tick efficacy (%) compared to the untreated control: topical line-on, test compound 60 mg/kg in NMP
Text: as §1, §2

[2] = tested on: cat flea (Ctenocephalides felis Bouche); experiment: In vivo evaluation against artificial infestations with cat fleas on mice; conditions: CD-1 mouse, 10 mg/kg oral in propylene glycol/glycerol formal (60:40), fleas applied 2 hours after dosing, evaluated 48 hours after flea application
Procedure: In vivo Evaluation Against Artificial Infestations With Cat Fleas (C. felis) on Mice
For evaluating control of the cat flea (Ctenocephalides felis Bouche), a CD-1® mouse (about 30 g, male, obtained from Charles River Laboratories, Wilmington, Mass.) was orally dosed with test compound in an amount of 10 mg/kg solubilized in propylene glycol/glycerol formal (60:40). Two hours after oral administration of the test compound, approximately 8 to 16 adult fleas were applied to each mouse. The fleas were then evaluated for mortality 48 hours after flea application to the mouse. 3-bromo-1-(3-chloro-2-pyridinyl)-N-[4-cyano-2-methyl-6-[(methylamino)carbonyl]phenyl]-1H-pyrazole-5-carboxamide caused 45% mortality.

[3] = 200 ppb in bovine blood, exposure time 7 hr
[4] = 200 ppb in bovine blood, exposure time 17 hr
[5] = 200 ppb in bovine blood, exposure time 24 hr
[6] = 400 ppb in bovine blood, exposure time 7 hr
[7] = 400 ppb in bovine blood, exposure time 17 hr
[8] = 400 ppb in bovine blood, exposure time 24 hr
[9] = 600 ppb in bovine blood, exposure time 7 hr
[10] = 600 ppb in bovine blood, exposure time 17 hr
[11] = 600 ppb in bovine blood, exposure time 24 hr

Compound: 22,23-dihydroavermectin B1 [Ivermectin, reference compound]
- % Adult mortality (adult H. irritans exigua; [3]): 78.5%
- % Adult mortality (adult H. irritans exigua; [4]): 91.8%
- % Adult mortality (adult H. irritans exigua; [5]): 93.1%
- % Adult mortality (adult H. irritans exigua; [6]): 80.1%
- % Adult mortality (adult H. irritans exigua; [7]): 94.2%
- % Adult mortality (adult H. irritans exigua; [8]): 98.0%
- % Adult mortality (adult H. irritans exigua; [9]): 86.0%
- % Adult mortality (adult H. irritans exigua; [10]): 95.5%
- % Adult mortality (adult H. irritans exigua; [11]): 100.0%

Compound: CNC(=O)c1cc(C#N)cc(C)c1NC(=O)c1cc(Br)nn1-c1ncccc1Cl [Test compound, 3-bromo-1-(3-chloro-2-pyridinyl)-N-[4-cyano-2-methyl-6-[(methylamino)carbonyl]phenyl]-1H-pyrazole-5-carboxamide]
- % Adult mortality (adult H. irritans exigua; [3]): 77.3%
- % Adult mortality (adult H. irritans exigua; [4]): 78.8%
- % Adult mortality (adult H. irritans exigua; [5]): 80.3%
- % Adult mortality (adult H. irritans exigua; [6]): 78.8%
- % Adult mortality (adult H. irritans exigua; [7]): 89.8%
- % Adult mortality (adult H. irritans exigua; [8]): 94.9%
- % Adult mortality (adult H. irritans exigua; [9]): 80.5%
- % Adult mortality (adult H. irritans exigua; [10]): 94.7%
- % Adult mortality (adult H. irritans exigua; [11]): 96.5%
- Flea efficacy compared to the untreated control (Cat Fleas (C. felis); 2 days post-treatment): over 99.5%
- Flea efficacy compared to the untreated control (Cat Fleas (C. felis); 9 days post-treatment): over 99.5%
- Flea efficacy compared to the untreated control (Cat Fleas (C. felis); 16 days post-treatment): over 99.5%
- Flea efficacy compared to the untreated control (Cat Fleas (C. felis); 30 days post-treatment): 97.3%
- Flea efficacy (%) compared to the untreated control (Cat Fleas (C. felis); Day 2): 99.6%
- Flea efficacy (%) compared to the untreated control (Cat Fleas (C. felis); Day 9): 99.7%
- Flea efficacy (%) compared to the untreated control (Cat Fleas (C. felis); Day 16): 99.7%
- Flea efficacy (%) compared to the untreated control (Cat Fleas (C. felis); Day 23): 98.7%
- Flea efficacy (%) compared to the untreated control (Cat Fleas (C. felis); Day 29): 97.3%
- Tick efficacy higher than the ADVANTIX ([1]; 48 hours after treatment, difference to ADVANTIX): 30%
- Tick efficacy compared to the negative control ([1]; topical line-on (test compound 60 mg/kg in NMP), 48 hours after treatment): 74%
- Tick efficacy compared to the untreated control ([1]; topical line-on (test compound 60 mg/kg in NMP), 9 days post-treatment): over 94.9%
- Tick efficacy compared to the untreated control ([1]; topical line-on (test compound 60 mg/kg in NMP), 16 days post-treatment): 90.5%
- Tick efficacy compared to the untreated control ([1]; topical line-on (test compound 60 mg/kg in NMP), 23 days post-treatment): 90.6%
- Tick efficacy compared to the untreated control ([1]; topical line-on (test compound 60 mg/kg in NMP), 30 days post treatment): 86.2%
- Tick efficacy (%) compared to the untreated control ([1]; Day 2): 74.0%
- Tick efficacy (%) compared to the untreated control ([1]; Day 9): 94.9%
- Tick efficacy (%) compared to the untreated control ([1]; Day 16): 95.0%
- Tick efficacy (%) compared to the untreated control ([1]; Day 23): 90.6%
- Tick efficacy (%) compared to the untreated control ([1]; Day 29): 86.2%
- flea mortality [2]: 45%
